The results in this text go back to publication PMC2095803 (Nucleic Acids Research, 2007).

Test [1] addresses AmpliTaqFS DNA polymerase (Thermus aquaticus, UniProt P19821, F667Y/G46D). The test can be described thus: PEP termination assay. In kind it is biochemical, Thermus aquaticus YT-1.
The target of test [2] is T1, Therminator II DNA polymerase (Thermococcus sp., UniProt Q56366, A485L/D141A/E143A/Y409V).
T1 sequence (Q56366 1-775 D141A/E143A/Y409V/A485L): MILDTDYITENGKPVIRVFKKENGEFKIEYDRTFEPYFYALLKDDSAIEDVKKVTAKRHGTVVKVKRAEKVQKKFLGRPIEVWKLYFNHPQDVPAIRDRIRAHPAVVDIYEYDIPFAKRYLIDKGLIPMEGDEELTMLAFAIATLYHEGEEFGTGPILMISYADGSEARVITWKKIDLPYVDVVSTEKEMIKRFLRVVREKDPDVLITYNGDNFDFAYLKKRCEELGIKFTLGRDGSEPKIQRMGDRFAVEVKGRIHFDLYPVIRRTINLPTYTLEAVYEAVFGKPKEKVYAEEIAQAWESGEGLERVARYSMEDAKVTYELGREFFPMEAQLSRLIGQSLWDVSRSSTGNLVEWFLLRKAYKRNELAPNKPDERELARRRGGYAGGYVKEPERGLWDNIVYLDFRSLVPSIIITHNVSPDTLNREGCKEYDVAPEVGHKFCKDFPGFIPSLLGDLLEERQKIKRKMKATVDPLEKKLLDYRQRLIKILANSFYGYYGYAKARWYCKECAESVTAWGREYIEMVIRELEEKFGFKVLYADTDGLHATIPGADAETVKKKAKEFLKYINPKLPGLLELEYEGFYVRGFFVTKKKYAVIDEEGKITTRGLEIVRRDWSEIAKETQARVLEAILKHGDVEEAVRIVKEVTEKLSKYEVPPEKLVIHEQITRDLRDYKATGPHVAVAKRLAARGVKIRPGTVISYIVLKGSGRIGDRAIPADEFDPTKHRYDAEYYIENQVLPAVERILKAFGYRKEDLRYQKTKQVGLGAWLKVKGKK
The test can be described thus: PEP termination assay. Type of test: biochemical, Thermococcus species 9ºN-7.

Test [3] addresses T2, Vent(exo−) DNA polymerase (Thermococcus litoralis, UniProt P30317, D141A/E143A).
T2 sequence (P30317 with tags, fused parts or gaps D141A/E143A): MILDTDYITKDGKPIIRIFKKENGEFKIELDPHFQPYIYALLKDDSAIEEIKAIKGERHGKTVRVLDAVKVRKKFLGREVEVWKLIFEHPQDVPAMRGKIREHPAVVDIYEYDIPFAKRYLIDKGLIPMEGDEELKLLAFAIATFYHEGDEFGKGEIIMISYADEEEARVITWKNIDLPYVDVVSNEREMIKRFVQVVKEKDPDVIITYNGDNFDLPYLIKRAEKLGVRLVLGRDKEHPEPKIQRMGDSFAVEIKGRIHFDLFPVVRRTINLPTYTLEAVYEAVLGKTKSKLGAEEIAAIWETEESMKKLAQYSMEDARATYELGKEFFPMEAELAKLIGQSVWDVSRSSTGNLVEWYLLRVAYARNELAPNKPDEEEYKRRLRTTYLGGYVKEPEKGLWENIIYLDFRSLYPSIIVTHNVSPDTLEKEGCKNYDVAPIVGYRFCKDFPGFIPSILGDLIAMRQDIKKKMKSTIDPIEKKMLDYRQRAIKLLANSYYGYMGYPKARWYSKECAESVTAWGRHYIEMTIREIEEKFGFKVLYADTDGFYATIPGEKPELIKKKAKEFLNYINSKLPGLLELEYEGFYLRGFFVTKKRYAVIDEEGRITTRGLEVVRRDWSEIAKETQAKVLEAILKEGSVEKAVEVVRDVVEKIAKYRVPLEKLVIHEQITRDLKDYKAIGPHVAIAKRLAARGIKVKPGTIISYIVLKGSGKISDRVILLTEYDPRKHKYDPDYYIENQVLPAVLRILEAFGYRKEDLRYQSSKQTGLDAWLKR
The test can be described thus: PEP termination assay. In kind it is biochemical.

The target of the next test is T3, Bst DNA polymerase (Geobacillus stearothermophilus, UniProt P52026).
T3 sequence (P52026 289-876 limits assumed): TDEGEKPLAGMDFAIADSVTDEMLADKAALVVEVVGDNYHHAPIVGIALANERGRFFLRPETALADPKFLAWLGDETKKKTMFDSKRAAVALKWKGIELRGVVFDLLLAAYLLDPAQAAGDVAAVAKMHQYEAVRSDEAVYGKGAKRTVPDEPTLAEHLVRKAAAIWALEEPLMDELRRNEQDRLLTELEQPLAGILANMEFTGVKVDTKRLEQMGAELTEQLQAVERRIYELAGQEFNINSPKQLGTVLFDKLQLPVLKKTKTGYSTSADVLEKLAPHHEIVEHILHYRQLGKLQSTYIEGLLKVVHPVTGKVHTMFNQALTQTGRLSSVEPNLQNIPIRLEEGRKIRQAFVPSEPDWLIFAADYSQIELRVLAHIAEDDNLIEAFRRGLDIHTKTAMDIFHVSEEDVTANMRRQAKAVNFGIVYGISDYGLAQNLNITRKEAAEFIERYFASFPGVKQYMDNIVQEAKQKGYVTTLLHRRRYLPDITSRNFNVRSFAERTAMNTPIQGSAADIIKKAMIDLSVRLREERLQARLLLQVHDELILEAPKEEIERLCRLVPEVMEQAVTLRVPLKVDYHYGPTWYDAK
The test can be described thus: Oligonucleotide template assay. In kind it is biochemical, Bacillus stearothermophilus. Particulars: Bst; final concentration of 200 nM.

Sequence of AmpliTaqFS DNA polymerase (P19821 whole entry G46D/F667Y): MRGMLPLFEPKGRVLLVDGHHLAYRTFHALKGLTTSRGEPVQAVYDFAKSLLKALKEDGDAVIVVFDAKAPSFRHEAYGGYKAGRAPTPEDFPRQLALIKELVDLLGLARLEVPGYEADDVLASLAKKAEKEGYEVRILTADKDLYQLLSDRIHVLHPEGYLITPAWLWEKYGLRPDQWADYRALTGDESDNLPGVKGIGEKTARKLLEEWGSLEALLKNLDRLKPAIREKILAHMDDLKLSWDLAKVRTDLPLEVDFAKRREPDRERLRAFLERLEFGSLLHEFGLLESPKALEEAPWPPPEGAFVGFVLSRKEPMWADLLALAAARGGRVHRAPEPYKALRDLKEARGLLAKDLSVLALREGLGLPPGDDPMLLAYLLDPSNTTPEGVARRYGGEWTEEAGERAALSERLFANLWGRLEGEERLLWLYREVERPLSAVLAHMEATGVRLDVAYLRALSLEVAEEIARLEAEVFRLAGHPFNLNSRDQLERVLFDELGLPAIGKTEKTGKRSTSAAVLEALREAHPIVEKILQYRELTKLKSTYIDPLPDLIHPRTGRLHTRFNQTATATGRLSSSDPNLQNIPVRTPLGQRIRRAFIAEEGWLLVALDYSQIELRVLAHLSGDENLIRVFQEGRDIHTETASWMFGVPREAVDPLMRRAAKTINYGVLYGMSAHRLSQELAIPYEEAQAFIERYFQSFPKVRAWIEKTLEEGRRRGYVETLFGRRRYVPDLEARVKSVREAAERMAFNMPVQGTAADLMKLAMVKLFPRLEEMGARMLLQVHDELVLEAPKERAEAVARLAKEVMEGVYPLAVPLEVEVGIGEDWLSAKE

Consider `O=[N+]([O-])c1ccccc1CNc1ncnc2c1ncn2[C@H]1C[C@H](O)[C@@H](COP(=O)(O)OP(=O)(O)OP(=O)(O)O)O1` [Compound IIIc, N^6-(2-Nitrobenzyl)-2’-deoxyadenosine-5’-triphosphate], for which the results for the 50% inhibitory concentration (IC50) in test [1], in test [2] and in test [3] were 350 nM, 30 nM and 2.1 nM, respectively. For the same compound, the “Incorporation / termination of DNA synthesis” value on Bst DNA polymerase is “efficient, base-specific termination of DNA synthesis”.

By IC50 is commonly meant the concentration that gives 50% inhibition. Read a low IC50 as inhibition by little substance.
